Reference: ChEMBL document CHEMBL1135608, “Discovery of the first nonpeptide agonist of the GPR14/urotensin-II receptor: 3-(4-chlorophenyl)-3-(2- (dimethylamino)ethyl)isochroman-1-one (AC-7954)” (J Med Chem, 2002)

What was measured:
[1] = biological target: T1, Urotensin-2 receptor (Homo sapiens, UniProt Q9UKP6); assay: Potency against human Urotensin 2 receptor
T1 sequence (Q9UKP6 whole entry): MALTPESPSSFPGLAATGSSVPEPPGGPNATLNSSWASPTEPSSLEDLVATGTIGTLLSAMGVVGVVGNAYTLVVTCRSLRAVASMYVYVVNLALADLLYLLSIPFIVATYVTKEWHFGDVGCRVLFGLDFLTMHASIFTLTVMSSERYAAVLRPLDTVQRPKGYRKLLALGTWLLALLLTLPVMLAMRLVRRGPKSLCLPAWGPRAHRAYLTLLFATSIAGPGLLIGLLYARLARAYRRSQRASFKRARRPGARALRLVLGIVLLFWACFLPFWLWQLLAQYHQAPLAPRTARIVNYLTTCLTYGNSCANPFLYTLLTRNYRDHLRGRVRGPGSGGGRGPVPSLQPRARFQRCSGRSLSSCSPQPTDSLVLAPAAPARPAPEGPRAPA

[2] = Lipophilicity of the compound; assay type: physicochemical; details: octanol/water
[3] = Dissociation constant of the compound; assay type: physicochemical
[4] = biological target: T2, Urotensin-2 receptor (Rattus norvegicus, UniProt P49684); assay: Potency against rat Urotensin 2 receptor
T2 sequence (P49684 whole entry): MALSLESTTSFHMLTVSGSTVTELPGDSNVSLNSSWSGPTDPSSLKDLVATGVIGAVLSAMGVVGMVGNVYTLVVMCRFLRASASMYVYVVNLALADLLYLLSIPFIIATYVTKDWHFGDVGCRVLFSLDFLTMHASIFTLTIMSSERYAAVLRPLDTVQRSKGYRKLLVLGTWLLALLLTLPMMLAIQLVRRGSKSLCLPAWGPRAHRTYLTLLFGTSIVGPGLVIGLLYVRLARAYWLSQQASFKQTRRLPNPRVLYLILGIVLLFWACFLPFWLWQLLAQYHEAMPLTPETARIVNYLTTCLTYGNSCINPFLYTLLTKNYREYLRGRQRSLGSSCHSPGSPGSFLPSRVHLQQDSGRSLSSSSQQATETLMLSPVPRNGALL

Compound	EC50 [1]	logD [2]	pKa [3]	EC50 [4]
CN(C)CCC1(c2ccc(Cl)cc2)Cc2ccccc2C(=O)O1 (single isomer, unassigned; (+))	251 nM	–	–	–
CN(C)CCC1(c2ccc(Cl)cc2)Cc2ccccc2C(=O)O1 (stereo in doubt; 1)	316 nM	2.1	8.7	200 nM
